Consider 25 compounds from ChEMBL document CHEMBL3769328, “Design and optimization of tricyclic gamma-secretase modulators” (Bioorg Med Chem Lett, 2016).

The source made the active and inactive calls. The rule behind the calls is not given here. Where only a bound is given, the exact number is not on record here.

For data set [1], the target named is Gamma-secretase. Briefly: Modulation of gamma secretase in human H4 cells assessed as inhibition of amyloid beta (1 to 42) production. It counts as cell-based.
For data set [2], the target named is Gamma-secretase. Briefly: Modulation of gamma secretase in human H4 cells transfected with APP751 SWE clone 8.20 mutant assessed as inhibition of amyloid beta (1 to 42) production after 19 hrs. It counts as cell-based.
A further data set deals with Cytochrome P450 3A4 (Homo sapiens, UniProt P08684). Kind of data set: Inhibition of CYP3A4 (unknown origin) by fluorescence assay.
Chain of Cytochrome P450 3A4 (P08684 whole entry): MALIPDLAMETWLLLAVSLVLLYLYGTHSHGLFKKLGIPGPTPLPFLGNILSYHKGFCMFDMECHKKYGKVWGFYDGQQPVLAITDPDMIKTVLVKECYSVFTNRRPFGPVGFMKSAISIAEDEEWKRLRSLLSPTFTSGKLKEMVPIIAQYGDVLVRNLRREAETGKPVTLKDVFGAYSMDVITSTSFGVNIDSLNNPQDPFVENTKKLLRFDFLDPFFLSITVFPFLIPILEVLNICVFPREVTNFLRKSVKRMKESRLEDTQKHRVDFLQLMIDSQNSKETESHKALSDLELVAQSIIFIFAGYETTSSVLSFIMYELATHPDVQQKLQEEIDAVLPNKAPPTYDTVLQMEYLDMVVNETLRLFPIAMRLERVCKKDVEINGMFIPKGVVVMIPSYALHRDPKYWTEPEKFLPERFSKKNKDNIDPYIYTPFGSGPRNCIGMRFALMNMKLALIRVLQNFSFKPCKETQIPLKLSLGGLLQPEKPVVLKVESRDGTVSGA
Data set [3] is described as follows: Total drug level in 3x transgenic Alzheimer's disease mouse brain at 30 mg/kg, po measured after 3 hrs. In kind it is ADME, organism-based. Conditions: 3x transgenic Alzheimer's disease model, read-out: Drug uptake.
Data set [4] concerns Mus musculus. Briefly: Anti-alzheimer activity in 3x transgenic mouse model of Alzheimer's disease assessed as amyloid beta (1 to 42) level in brain at 10 mg/kg, po measured after 3 hrs by ELISA relative to control. It counts as functional. For orientation: In an ELISA, binding on a coated surface is turned into a signal by an enzyme label.
A short description of data set [5]: Plasma concentration in 3x transgenic Alzheimer's disease mouse model at 10 mg/kg, po measured after 3 hrs. In kind it is ADME, organism-based. Conditions: 3x transgenic Alzheimer's disease model.
Data set [6] is described as follows: Ratio of total drug level in brain to plasma in 3x transgenic mouse model of Alzheimer's disease at 30 mg/kg, po measured after 3 hrs. In kind it is ADME, organism-based. To be noted: 3x transgenic Alzheimer's disease model, read-out: BPR.
Data set [7] has as its system Mus musculus. Kind of data set: Anti-alzheimer activity in 3x transgenic mouse model of Alzheimer's disease assessed as amyloid beta (1 to 42) level in brain at 100 mg/kg, po measured after 3 hrs by ELISA relative to control. In kind it is functional.
The target of data set [8] is Voltage-gated inwardly rectifying potassium channel KCNH2 (Homo sapiens, UniProt Q12809). Kind of data set: Inhibition of human ERG by thallium flux assay.
Chain of Voltage-gated inwardly rectifying potassium channel KCNH2 (Q12809 whole entry): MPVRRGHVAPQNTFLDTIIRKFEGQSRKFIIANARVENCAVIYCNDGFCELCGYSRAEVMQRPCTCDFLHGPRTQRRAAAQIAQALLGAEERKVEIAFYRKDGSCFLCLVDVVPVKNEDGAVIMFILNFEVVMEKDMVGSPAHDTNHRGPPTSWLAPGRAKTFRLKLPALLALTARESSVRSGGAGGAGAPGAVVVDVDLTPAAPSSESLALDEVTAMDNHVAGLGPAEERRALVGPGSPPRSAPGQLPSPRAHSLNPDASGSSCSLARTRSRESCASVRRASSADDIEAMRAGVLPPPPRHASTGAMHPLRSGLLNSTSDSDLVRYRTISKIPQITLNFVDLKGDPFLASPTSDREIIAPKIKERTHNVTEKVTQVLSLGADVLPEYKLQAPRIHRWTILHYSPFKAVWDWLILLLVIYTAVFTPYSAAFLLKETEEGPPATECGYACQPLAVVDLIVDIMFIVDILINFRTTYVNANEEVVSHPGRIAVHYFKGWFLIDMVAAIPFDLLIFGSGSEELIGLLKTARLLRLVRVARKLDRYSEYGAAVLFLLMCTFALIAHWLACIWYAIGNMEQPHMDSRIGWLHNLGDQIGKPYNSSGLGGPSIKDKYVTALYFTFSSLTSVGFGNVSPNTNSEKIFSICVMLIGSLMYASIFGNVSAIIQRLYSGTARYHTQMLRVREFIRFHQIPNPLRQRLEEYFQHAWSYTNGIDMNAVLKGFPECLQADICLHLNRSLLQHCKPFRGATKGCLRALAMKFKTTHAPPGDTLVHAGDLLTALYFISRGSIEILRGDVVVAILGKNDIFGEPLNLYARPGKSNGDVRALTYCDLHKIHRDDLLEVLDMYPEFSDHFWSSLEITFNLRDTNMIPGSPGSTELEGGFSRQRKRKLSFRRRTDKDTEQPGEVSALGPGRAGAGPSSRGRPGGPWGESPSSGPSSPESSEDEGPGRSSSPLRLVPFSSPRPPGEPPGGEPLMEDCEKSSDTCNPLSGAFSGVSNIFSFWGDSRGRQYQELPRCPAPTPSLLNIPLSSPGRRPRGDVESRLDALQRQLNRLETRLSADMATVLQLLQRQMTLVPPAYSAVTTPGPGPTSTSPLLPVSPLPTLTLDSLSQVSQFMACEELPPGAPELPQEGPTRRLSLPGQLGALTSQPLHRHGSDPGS
Data set [9] concerns Mus musculus. Kind of data set: Anti-alzheimer activity in 3x transgenic mouse model of Alzheimer's disease assessed as amyloid beta (1 to 42) level in brain at 3 mg/kg, po measured after 3 hrs by ELISA relative to control. In kind it is functional.
The nature of data set [10]: Plasma protein binding in mouse. It counts as ADME, cell-free. To be noted: read-out: PPB.
Data set [11] is described as follows: Plasma concentration in 3x transgenic Alzheimer's disease mouse model at 30 mg/kg, po measured after 3 hrs. Conditions: 3x transgenic Alzheimer's disease model. It counts as ADME, organism-based.
Data set [12] is described as follows: Plasma protein binding in human. It counts as ADME, cell-free. Conditions: read-out: PPB.
Data set [13] can be described thus: Plasma concentration in 3x transgenic Alzheimer's disease mouse model at 3 mg/kg, po measured after 3 hrs. It counts as ADME, organism-based. Conditions: 3x transgenic Alzheimer's disease model.
Data set [14] deals with Mus musculus. Kind of data set: Anti-alzheimer activity in 3x transgenic mouse model of Alzheimer's disease assessed as amyloid beta (1 to 42) level in brain at 1 mg/kg, po measured after 3 hrs by ELISA relative to control. In kind it is functional.
Data set [15] can be described thus: Plasma concentration in 3x transgenic Alzheimer's disease mouse model at 1 mg/kg, po measured after 3 hrs. It counts as ADME, organism-based. To be noted: 3x transgenic Alzheimer's disease model.
Data set [16] concerns Mus musculus. Kind of data set: Anti-alzheimer activity in 3x transgenic mouse model of Alzheimer's disease assessed as amyloid beta (1 to 42) level in brain at 30 mg/kg, po measured after 3 hrs by ELISA relative to control. In kind it is functional.
Data set [17] is described as follows: Plasma concentration in 3x transgenic Alzheimer's disease mouse model at 100 mg/kg, po measured after 3 hrs. It counts as ADME, organism-based. Conditions: 3x transgenic Alzheimer's disease model.
In the next data set the test system is Liver microsome. Kind of data set: Drug metabolism in human liver microsomes. It counts as ADME.
Data set [18] relates to Mus musculus. Kind of data set: Effect on total amyloid beta production in 3x transgenic mouse model of Alzheimer's disease at 1 to 100 mg/kg, po measured after 3 hrs by ELISA. In kind it is ADME, organism-based. Conditions: in vivo.
Data set [19] is filed under the species Mus musculus. Conditions: Brain, 30 mg/kg.

Turning to `Cc1cc(-c2ccc3c(c2)CCc2sc(Cc4ccc(F)cc4)nc2N3)ccn1`, on Gamma-secretase [1] (read-out: IC50), the concentration for half-maximal inhibition (IC50) turned out to be 0.08 µM.

For the compound `CNc1nc(Cc2ccccc2)nc(Nc2ccc(-n3cnc(C)c3)c(OC)c2)n1`, the IC50 on Gamma-secretase [2] came to 0.029 µM.

With `Cc1ncn(-c2ccc3c(c2)CCc2sc(Cc4ccccc4)nc2N3)n1`, at Gamma-secretase [1] (read-out: IC50), the IC50 is 0.14 µM.

With `COc1ccc(Cc2nc3c(n2C)CCc2cc(-n4cnc(C)c4)ccc2C3=O)cc1`, on Gamma-secretase [1] (read-out: IC50), the 50% inhibitory concentration (IC50) is 1.1 µM.

In the case of `COc1ccc(Cc2nc3c(o2)CCc2cc(-c4ccnc(C)c4)ccc2C3=O)cc1`, the IC50 on Gamma-secretase [1] (read-out: IC50) and against Cytochrome P450 3A4 was 0.3 µM throughout.

Turning to `Cc1cn(-c2ccc3c(c2)CCc2sc(Cc4ccccc4)nc2N3)cn1`, the concentration at 3 h in data set [3] came to 8.9 µM; in data set [5], 3.8 µM; in data set [11], 8 µM; in data set [13], 0.48 µM; in data set [15], 0.21 µM; in data set [17], 25 µM. Moreover, the Activity in the data set with Mus musculus [4] is on record as 70%; in the data set with Mus musculus [7] it was 50%; with Mus musculus [9], 100%; in the data set with Mus musculus [14] it was 110%; in the data set on Mus musculus [16], 60%; with Mus musculus [18], “Non-toxic”. In addition, the results for the IC50 at Gamma-secretase [1] (read-out: IC50) and on Cytochrome P450 3A4 were 0.035 µM and 0.7 µM, respectively. Besides, the Kp at 3 h in data set [6] stood at 1.1. For the same compound, the “inhibition (INH)” value in data set [8] is on record as “Not Active”. The fraction unbound in [10] and in data set [12] was < 0.002 each time. In addition, the Drug metabolism in the data set on Liver microsome was 0.035 nmol/min/mg.

Take `Cc1cn(-c2ccc3c(c2)CCc2ccc(Cc4ccc(F)cc4)nc2C3=O)cn1`: the figures for the concentration for half-maximal inhibition (IC50) on Gamma-secretase [1] (read-out: IC50) and on Cytochrome P450 3A4 were 1 µM and 0.3 µM, respectively.

Turning to `Cc1cn(-c2ccc3c(c2)NC(=O)c2ccc(C(C)c4ccccc4)nc2N3)cn1` (racemic), the IC50 on Gamma-secretase [1] (read-out: IC50) was 0.1 µM; at Cytochrome P450 3A4, 0.2 µM.

`Clc1cn(-c2ccc3c(c2)CCc2sc(Cc4ccccc4)nc2N3)cn1`: the IC50 on Gamma-secretase [1] (read-out: IC50) was 0.14 µM.

As to `Cc1ncn(-c2ccc3c(c2)CCc2cnn(Cc4ccccc4)c2N3)n1`, in the data set with Gamma-secretase [1], the IC50 result is listed as “Not Active”.

With `Cc1cn(-c2ccc3c(c2)NC(=O)c2ccc(Cc4ccccc4)nc2N3)cn1`, the results for the IC50 at Gamma-secretase [1] (read-out: IC50) and on Cytochrome P450 3A4 were 0.05 µM and 0.15 µM, respectively. Also, the inhibition result in the data set listed under Mus musculus [19] was “inactive”.

Turning to `COc1ccc(Cc2nc3c(n2C)CCc2cc(-c4ccnc(C)c4)ccc2C3=O)cc1`, the figures for the concentration for half-maximal inhibition (IC50) on Gamma-secretase [1] (read-out: IC50) and against Cytochrome P450 3A4 were 0.38 µM and 0.3 µM, respectively.

As to `Cc1cn(-c2cc3c(cc2F)Nc2nc(Cc4ccccc4)ccc2C(=O)N3)cn1`, the IC50 at Gamma-secretase [1] (read-out: IC50) was found to be 0.82 µM; against Cytochrome P450 3A4, 0.03 µM.

Take `O=C1Nc2cc(-n3cnc(Cl)c3)ccc2Nc2nc(Cc3ccccc3)ccc21`: the IC50 at Gamma-secretase [1] (read-out: IC50) is 0.19 µM; against Cytochrome P450 3A4 it was > 13 µM.

Take `Clc1cn(-c2ccc3c(c2)CCc2cn(Cc4ccccc4)nc2N3)cn1`: the IC50 amounted to 0.04 µM at Gamma-secretase [1] (read-out: IC50) and 0.3 µM on Cytochrome P450 3A4.

Consider `CNc1nc(Nc2ccc(-n3cncn3)c(OC)c2)nc(-c2ccccc2)n1`, for which, on Gamma-secretase [2], the IC50 turned out to be 0.18 µM.

Turning to `Cc1cc(-c2ccc3c(c2)CCc2sc(Cc4ccc(F)c(F)c4)nc2N3)ccn1`, the 50% inhibitory concentration (IC50) on Gamma-secretase [1] (read-out: IC50) turned out to be 0.12 µM.

For `Cc1cc(-c2ccc3c(c2)CCc2sc(Cc4ccccc4)nc2N3)ccn1`, the IC50 at Gamma-secretase [1] (read-out: IC50) was 0.05 µM.

Regarding `CC(c1ccccc1)c1ccc2c(n1)Nc1ccc(-n3cnc(Cl)c3)cc1NC2=O` (racemic), the IC50 on Gamma-secretase [1] (read-out: IC50) is 0.2 µM; at Cytochrome P450 3A4, > 13 µM.

Regarding `Clc1cn(-c2ccc3c(c2)CCc2cnn(Cc4ccccc4)c2N3)cn1`, the IC50 result with Gamma-secretase [1] is “Not Active”.

Take `Cc1ncn(-c2ccc3c(c2)CCc2cn(Cc4ccccc4)nc2N3)n1`: the IC50 at Gamma-secretase [1] (read-out: IC50) worked out at 0.18 µM; on Cytochrome P450 3A4, 0.3 µM.

With `N#Cc1ccc2c(c1)CCc1sc(Cc3ccccc3)nc1N2`, on Gamma-secretase [1] (read-out: IC50), the 50% inhibitory concentration (IC50) turned out to be 1.2 µM.

On to `Cc1ncn(-c2ccc3c(c2)NC(=O)c2ccc(Cc4ccccc4)nc2N3)n1`, for which the IC50 at Gamma-secretase [1] (read-out: IC50) was 0.46 µM; at Cytochrome P450 3A4, 2 µM.

As for `Cc1cn(-c2ccc3c(c2)CCc2sc(Cc4ccc(F)cc4)nc2N3)cn1`, the half-inhibitory concentration (IC50) at Gamma-secretase [1] (read-out: IC50) was determined as 0.02 µM.

Take `Cc1cncn1-c1ccc2c(c1)CCc1sc(Cc3ccc(F)cc3)nc1N2`: the IC50 at Gamma-secretase [1] (read-out: IC50) worked out at 1.8 µM.

What is called IC50 is the concentration that gives 50% inhibition.
